Laboratory results taken from US11191820B2, “Method for inducing early T memory response with short peptides anti-tumor vaccine” (OSE IMMUNOTHERAPEUTICS, priority 2015, dated 2021).

Legend:
Type in all cases: in vivo, human
central memory T cells [1] = experiment: Cultured IFN-γ ELISPOT after 10-day in vitro stimulation of PBMC, phase 1/2 colon cancer trial of OSE-2101; design: key to net SFC of vaccine positive CTL responses: —, indicates SFC response did not meet criteria and vaccine response was negative; details: for Mean SFC: 10 colon patients
Method: (§1) Clinical study design. Both trials were designed as phase 1/2, open label, multi-center, single dose, multiple administration studies to evaluate the safety and immunogenicity of the OSE-2101 immunotherapy. Patients were treated with 1 ml OSE-2101 every 3 weeks for a total of six doses. Each dose was administered subcutaneously in the same vicinity in the deltoid or upper thigh region, or at a contralateral site if local side-effects were observed. The study duration for each completed patient was 18 weeks. Clinical responses or patient survival were not measured in either phase 1/2 studies.
(§2) Clinical sample processing. Blood or leukapheresis product was obtained from patients at the pre-treatment, the Week 9 and Week 18 time points, 3 weeks after the third and sixth dose of OSE-2101 respectively. Peripheral blood mononuclear cells (PBMC) were isolated from samples within 24 hours of collection using a FICOLL-PAQUE density gradient and cryopreserved in containers designed to ensure optimal freezing (Mr. Frosty, Nalgene). For use, cells were rapidly thawed at 37° C. then transferred to human AB serum-containing medium for work-up.
(§3) Measurement of central T memory cells responses and T effector memory cells. The CTL responses in 16 total patients (10 colon and six NSCLC) were monitored for CTL responses against each epitope and against the wild-type epitope of epitopes analogs. For each patient, the pre-treatment, Week 9 and Week 18 time points were batch-tested in the same experiment to allow pre- versus post-treatment response comparison in the same experiment. Central T memory cells responses were measured using an IFN-γ enzyme-linked immunospot (cultured ELISPOT) assay following in vitro stimulation of PBMC for 10 days with each vaccine epitope. Briefly, PBMC from each time point were stimulated on day 0 with 10 μg/ml of each epitope individually in replicate in 48-well culture plates (2×10^6 PBMC/well). All cultures were fed with rIL-2 (Endogen, Woburn, Mass.; 10 U/ml final concentration) on days 1, 4 and 7. Ten days after initiation of culture, cells were harvested and tested for activity against specific vaccine peptides and corresponding wild-type peptides of vaccine analogs in the T memory ELISPOT assay. Cells were tested in Millipore IP 96-well plates pre-coated with mouse anti-human IFN-γ antibody (Mabtech USA, Cincinnati, Ohio). Five×10^4 cells and 1.25×10^4 cells from each culture were plated in triplicate wells together with 10^5 irradiated autologous PBMC and 10 μg/ml peptide. As a control, CTL were also tested against an irrelevant HLA-A2.1-binding HBV peptide. After 20 hours incubation, T memory ELISPOT plates were developed by performing sequential incubations with biotinylated anti-human IFN-γ antibody (Mabtech USA), Avidin-Peroxidase Complex (APC, Vector Laboratories, Burlingame, Calif.), and 3-amino-9-ethyl carbazole (AEC) substrate (Sigma Aldrich, St. Louis, Mo.). Spot-forming cells (SFC) were enumerated using a computer-assisted image analysis system (Zeiss KS ELISPOT Reader, Carl Zeiss MicroImaging, Thornwood, N.J.). Data is reported as the net SFC per 5×10^4 cells after subtracting spots induced with the irrelevant HBV peptide.

central memory T cells [2] = experiment: Cultured IFN-γ ELISPOT after 10-day in vitro stimulation of PBMC, phase 1/2 NSCLC trial of OSE-2101; design: key to net SFC of vaccine positive CTL responses: —, indicates SFC response did not meet criteria and vaccine response was negative; details: for Mean SFC / No. Positive Responses: 6 NSCLC patients
Method: as §1, §2, §3

central memory T cells [3] = experiment: Central memory T cell cultured ELISPOT, phase 2 trial in advanced NSCLC
Method: CTL Immune responses measured though cultured Elispot. The immunogenicity was measured in Phase 2 clinical trial on cryopreserved PBMC from each test sample were thawed in 5% human culture medium (RPMI-1640 medium with 25 mM HEPES, supplemented with 5% human AB serum, 4 mM L-glutamine, 0.5 mM sodium pyruvate, 0.1 mM MEM non-essential amino acids, 100 μg/ml streptomycin, and 100 U/ml penicillin) containing 30 μg/ml DNAase. After centrifugation for 5 minutes at 1200 rpm, the cell pellets were resuspended in 5% human culture medium and washed 2 times. For the central Memory T cell cultured ELISPOT assay, 2×10^6/ml PBMC were placed in replicate wells in a 48-well plates and stimulated for 10 days with 10 μg/ml of each peptide. As a positive control, PBMC were also stimulated with a pool of recall viral peptides. Human rIL2 (10 U/ml) was added to the peptide-stimulated cultures at day 1, day 4 and day 7. After 10 days the stimulated cells were harvested and plated at a concentration of 5×10^4/well. Assay wells also received irradiated autologous PBMC (1×10^5/well) and 10 μg/ml peptide, either the vaccine peptide, irrelevant peptide or positive control peptides. Cells stimulated in vitro with each analog epitope were also tested against the corresponding wild-type epitope.
Data analysis and acceptance criteria. Mean and standard deviation (SD) of spots in replicate wells were calculated in all assays by transferring raw ELISPOT data from each experiment to an Excel-based computer program. Positive vaccine-induced T-cell responses were determined according to the criteria described below.
Acceptance Criteria for peptide-Induced specific T-cell response through central memory T cells: The positive criteria for CTL responses used in the phase 2 trial was identical to the criteria in the phase 1/2 trials which was established prospectively after analyzing the variability of pre-treatment responses in patients against each vaccine epitope and the irrelevant HBV control epitope. A positive peptide-induced CTL/T memory response to a given epitope met all of the following conditions: 1) was greater than 5 SFC above the irrelevant epitope response, 2) was greater than the mean SFC of the irrelevant epitope response, plus 2 SD, and 3) was two-fold greater than the SFC response in the pre-vaccination sample from the same patient, plus 2 SD. The inclusion of “plus two standard deviations” was used to accommodate the assay variability and served to increase the criteria stringency.

KVFGSLAFV [HER2.369L2V9 A] was tested, and the “Mean SFC” value (central memory T cells [1]; Week 9) was 120.8 SFC per 50,000 cells, the “Mean SFC” value (central memory T cells [1]; Week 18) was 315.7 SFC per 50,000 cells and the “net SFC of vaccine positive CTL responses” value (“net SFC” below) (central memory T cells [1]; colon patient 551, Week 9) was 134.7 SFC per 50,000 cells. The “net SFC” value (central memory T cells [1]; colon patient 551, Week 18) was 80.7 SFC per 50,000 cells, the “net SFC” value (central memory T cells [1]; colon patient 601, Week 9) was 112.7 SFC per 50,000 cells and the “net SFC” value (central memory T cells [1]; colon patient 601, Week 18) was 52.3 SFC per 50,000 cells. The “net SFC” value (central memory T cells [1]; colon patient 602, Week 9) was “—”, the “net SFC” value (central memory T cells [1]; colon patient 602, Week 18) was “—” and the “net SFC” value (central memory T cells [1]; colon patient 603, Week 9) was 30.0 SFC per 50,000 cells. The “net SFC” value (central memory T cells [1]; colon patient 603, Week 18) was “—”, the “net SFC” value (central memory T cells [1]; colon patient 604, Week 9) was 88.3 SFC per 50,000 cells and the “net SFC” value (central memory T cells [1]; colon patient 604, Week 18) was 314.7 SFC per 50,000 cells. For the same sequence, the “net SFC” value (central memory T cells [1]; colon patient 605, Week 9) was 32.7 SFC per 50,000 cells, the “net SFC” value (central memory T cells [1]; colon patient 605, Week 18) was 33.7 SFC per 50,000 cells and the “net SFC” value (central memory T cells [1]; colon patient 606, Week 9) was “—”. The “net SFC” value (central memory T cells [1]; colon patient 606, Week 18) was 71.0 SFC per 50,000 cells, the “net SFC” value (central memory T cells [1]; colon patient 607, Week 9) was 389.3 SFC per 50,000 cells and the “net SFC” value (central memory T cells [1]; colon patient 607, Week 18) was 1642.7 SFC per 50,000 cells. For the same sequence, the “net SFC” value (central memory T cells [1]; colon patient 608, Week 9) was “—”, the “net SFC” value (central memory T cells [1]; colon patient 608, Week 18) was “—” and the “net SFC” value (central memory T cells [1]; colon patient 609, Week 9) was 58.0 SFC per 50,000 cells. For the same sequence, the “net SFC” value (central memory T cells [1]; colon patient 609, Week 18) was 14.7 SFC per 50,000 cells, the “Mean SFC” value (central memory T cells [2]; Week 9) was 84.3 SFC per 50,000 cells and the “No. Positive Responses” value (central memory T cells [2]; Week 9) was 1. For the same sequence, the “Mean SFC” value (central memory T cells [2]; Week 18) was 109.3 SFC per 50,000 cells, the “No. Positive Responses” value (central memory T cells [2]; Week 18) was 4 and the “net SFC” value (central memory T cells [2]; NSCLC patient 201, Week 9) was “—”. For the same sequence, the “net SFC” value (central memory T cells [2]; NSCLC patient 201, Week 18) was “—”, the “net SFC” value (central memory T cells [2]; NSCLC patient 502, Week 9) was “—” and the “net SFC” value (central memory T cells [2]; NSCLC patient 502, Week 18) was “—”. For the same sequence, the “net SFC” value (central memory T cells [2]; NSCLC patient 504, Week 9) was 84.3 SFC per 50,000 cells, the “net SFC” value (central memory T cells [2]; NSCLC patient 504, Week 18) was 284.0 SFC per 50,000 cells and the “net SFC” value (central memory T cells [2]; NSCLC patient 505, Week 9) was “—”. The “net SFC” value (central memory T cells [2]; NSCLC patient 505, Week 18) was 53.0 SFC per 50,000 cells, the “net SFC” value (central memory T cells [2]; NSCLC patient 532, Week 9) was “—” and the “net SFC” value (central memory T cells [2]; NSCLC patient 532, Week 18) was 78.3 SFC per 50,000 cells. For the same sequence, the “net SFC” value (central memory T cells [2]; NSCLC patient 651, Week 9) was “—”, the “net SFC” value (central memory T cells [2]; NSCLC patient 651, Week 18) was 22.0 SFC per 50,000 cells and the “% of patients with positive CTL/central memory T cell response” value (central memory T cells [3]; phase 2, month 9) was 29%. For the same sequence, the “patients with positive CTL/central memory T cell response / patients tested” value (central memory T cells [3]; phase 2, month 9) was 2/7, the “% of patients with positive CTL/central memory T cell response” value (central memory T cells [3]; phase 2, month 12) was 50% and the “patients with positive CTL/central memory T cell response / patients tested” value (central memory T cells [3]; phase 2, month 12) was 2/4. For the same sequence, the “% of patients with positive CTL/central memory T cell response” value (central memory T cells [3]; phase 2, week 9) was 42%, the “patients with positive CTL/central memory T cell response / patients tested” value (central memory T cells [3]; phase 2, week 9) was 14/33 and the “% of patients with positive CTL/central memory T cell response” value (central memory T cells [3]; phase 2, week 18) was 44%. The “patients with positive CTL/central memory T cell response / patients tested” value (central memory T cells [3]; phase 2, week 18) was 14/32, the “% of patients with positive CTL/central memory T cell response” value (central memory T cells [3]; phase 2, week 30) was 57% and the “patients with positive CTL/central memory T cell response / patients tested” value (central memory T cells [3]; phase 2, week 30) was 13/23.
